# Patent publication US7304174B2, “CaSR antagonist” (Japan Tobacco Inc., priority 2003, dated 2007)
# Tested on: PTH secretion
# Test: PTH secretion action, Experimental Example 2 (serum PTH after oral administration)
# Type: in vivo, male SD rats
# Details: test compound administration group, 1 mg/5 ml/kg oral, rats fasted 20 hr
# Description: The test compound was orally administered to 5 to 9-week-old male SD rats (Charles River Japan, Inc.) fasted for 20 hr, using a solvent (0.5% methyl cellulose solution) at a dose of 1 mg/5 ml/kg. A solvent alone was orally administered to the control group at a dose of 5 ml/kg. The blood was drawn from the tail vein immediately before and, 15 min, 30 min, 60 min and 120 min after the administration of the test compound, and serum was obtained. The serum PTH concentration was measured using rat PTH ELISA kit (Amersham Biosciences).
smiles,measurement,setting,value
"Cc1ccc(CC(C)(C)NC[C@@H](O)CO[C@H](C)c2ccccc2-c2ccc(C(=O)O)c(C)c2)cc1F [Example 1-1, 2′-[(1R)-[(2R)-3-[[1-(3-Fluoro-4-methylphenyl)-2-methylpropan-2-yl]amino]-2-hydroxypropoxy]ethyl]-3-methylbiphenyl-4-carboxylic acid]",Serum PTH concentration 15 min later,15 min,43.9 ± 2.0 pg/mL
same,Serum PTH concentration 30 min later,30 min,25.0 ± 3.2 pg/mL
same,Serum PTH concentration 60 min later,60 min,17.9 ± 2.0 pg/mL
same,Serum PTH concentration 120 min later,120 min,14.8 ± 1.6 pg/mL
